Reference: patent US20100048950A1 (BOEHRINGER INGELHEIM INTERNATIONAL GMBH, priority 2007, published 2010)
pIC50: −log10 of the molar value.

These compounds were tested against T1, human glucocorticoid receptor (GR) complex (Homo sapiens, UniProt P04150) (assay: Glucocorticoid receptor competitive binding assay (fluorescence polarization)). Conditions: competition with TAMRA-labeled dexamethasone, read-out: potent activity (IC50) in the GR binding assay.
T1 construct: made in house; host or cells: insect expression system (baculovirus lysate)
T1 sequence (P04150 1-777): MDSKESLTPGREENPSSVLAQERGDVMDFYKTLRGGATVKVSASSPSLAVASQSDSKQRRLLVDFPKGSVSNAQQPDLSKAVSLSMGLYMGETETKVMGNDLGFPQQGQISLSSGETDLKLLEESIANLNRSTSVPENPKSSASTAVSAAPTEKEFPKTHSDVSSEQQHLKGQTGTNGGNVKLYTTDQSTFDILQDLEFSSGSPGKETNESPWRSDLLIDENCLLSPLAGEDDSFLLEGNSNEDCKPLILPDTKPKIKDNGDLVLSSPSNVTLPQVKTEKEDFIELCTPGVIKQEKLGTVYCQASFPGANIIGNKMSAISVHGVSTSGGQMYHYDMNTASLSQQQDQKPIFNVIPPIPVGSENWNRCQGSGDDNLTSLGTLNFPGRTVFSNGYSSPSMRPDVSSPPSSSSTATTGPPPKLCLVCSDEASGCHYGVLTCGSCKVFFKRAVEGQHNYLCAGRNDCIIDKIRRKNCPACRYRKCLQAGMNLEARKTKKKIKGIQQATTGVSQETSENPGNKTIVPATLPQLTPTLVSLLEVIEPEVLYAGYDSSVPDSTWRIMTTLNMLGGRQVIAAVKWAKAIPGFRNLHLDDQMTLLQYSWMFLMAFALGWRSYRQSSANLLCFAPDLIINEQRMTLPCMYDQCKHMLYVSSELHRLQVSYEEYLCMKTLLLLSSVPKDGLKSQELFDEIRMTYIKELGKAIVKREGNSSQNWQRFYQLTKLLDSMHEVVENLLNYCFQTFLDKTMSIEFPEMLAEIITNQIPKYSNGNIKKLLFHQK
Summary of the method: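 Human GR complex in baculovirus insect-cell lysate (1:170) competed against 15 nM TAMRA-dexamethasone stock for 1 h at room temperature. Buffer: TES/KCl/molybdate/EDTA/CHAPS/glycerol/DTT, pH 7.4, 1% DMSO final. FP read at 550/580 nm; IC50 from 4-parameter logistic fit.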

pIC50, ≥ 7.00:
Cc1cc(C)c(S(=O)(=O)NC(COc2cccc3c2CCCC3=O)C(F)(F)F)c(C)c1 (stereo not drawn) [2,4,6-Trimethyl-N-[2,2,2-trifluoro-1-(5-oxo-5,6,7,8-tetrahydronaphthalen-1-yloxymethyl)ethyl]benzenesulfonamide]
Cc1cc(C)c(S(=O)(=O)NC(CSc2ccccc2C(C)(C)C)C(F)(F)F)c(C)c1 (stereo not drawn) [N-[1-(2-tert-Butylphenylsulfanylmethyl)-2,2,2-trifluoroethyl]-2,4,6-trimethylbenzenesulfonamide]
CCc1ccccc1SCC(NS(=O)(=O)c1c(C)cc(C)cc1C)C(F)(F)F (stereo not drawn) [N-[1-(2-Ethylphenylsulfanylmethyl)-2,2,2-trifluoroethyl]-2,4,6-trimethylbenzenesulfonamide]
Cc1cc(C)c(S(=O)(=O)NC(COc2ccc(Br)cc2)C(F)(F)F)c(C)c1 (stereo not drawn) [N-[1-(4-Bromophenoxymethyl)-2,2,2-trifluoroethyl]-2,4,6-trimethylbenzenesulfonamide]
Cc1cc(C)c(S(=O)(=O)NC(CNc2c(Cl)cccc2Cl)C(F)(F)F)c(C)c1 (stereo not drawn) [N-{1-[(2,6-Dichlorophenylamino)methyl]-2,2,2-trifluoroethyl}-2,4,6-trimethylbenzenesulfonamide]
Cc1cc(C)c(S(=O)(=O)NC(COc2ccccc2C(F)(F)F)C(F)(F)F)c(C)c1 (stereo not drawn) [2,4,6-Trimethyl-N-[2,2,2-trifluoro-1-(2-trifluoromethylphenoxymethyl)ethyl]benzenesulfonamide]
Cc1cccc(OCC(NS(=O)(=O)c2c(C)cc(C)cc2C)C(F)(F)F)c1 (stereo not drawn) [2,4,6-Trimethyl-N-(2,2,2-trifluoro-1-m-tolyloxymethylethyl)benzenesulfonamide]
COc1ccc(OC)c(SCC(NS(=O)(=O)c2c(C)cc(C)cc2C)C(F)(F)F)c1 (stereo not drawn) [N-[1-(2,5-Dimethoxyphenylsulfanylmethyl)-2,2,2-trifluoroethyl]-2,4,6-trimethylbenzenesulfonamide]
Cc1cc(C)c(S(=O)(=O)NC(COc2cccc3ccccc23)C(F)(F)F)c(C)c1 (stereo not drawn) [2,4,6-Trimethyl-N-[2,2,2-trifluoro-1-(naphthalen-1-yloxymethyl)ethyl]benzenesulfonamide]
Cc1cc(C)c(S(=O)(=O)NC(CSc2cc(C)ccc2C)C(F)(F)F)c(C)c1 (stereo not drawn) [N-[1-(2,5-Dimethylphenylsulfanylmethyl)-2,2,2-trifluoroethyl]-2,4,6-trimethylbenzenesulfonamide]
Cc1cc(C)c(S(=O)(=O)NC(CNc2ccc(Cl)cc2)C(F)(F)F)c(C)c1 (stereo not drawn)
Cc1cc(C)c(S(=O)(=O)NC(CSc2c(C)cccc2Cl)C(F)(F)F)c(C)c1 (stereo not drawn) [N-[1-(2-Chloro-6-methylphenylsulfanylmethyl)-2,2,2-trifluoroethyl]-2,4,6-trimethylbenzenesulfonamide]
Cc1cc(C)c(S(=O)(=O)NC(CSc2ccc(F)c(Cl)c2)C(F)(F)F)c(C)c1 (stereo not drawn) [N-[1-(3-Chloro-4-fluorophenylsulfanylmethyl)-2,2,2-trifluoroethyl]-2,4,6-trimethylbenzenesulfonamide]
Cc1cc(C)c(S(=O)(=O)NC(CN(CCC#N)c2ccccc2)C(F)(F)F)c(C)c1 (stereo not drawn) [N-(1-{[(2-Cyanoethyl)phenylamino]methyl}-2,2,2-trifluoroethyl)-2,4,6-trimethylbenzenesulfonamide]
Cc1cc(C)c(S(=O)(=O)NC(CSc2ccc(Br)cc2)C(F)(F)F)c(C)c1 (stereo not drawn) [N-[1-(4-Bromophenylsulfanylmethyl)-2,2,2-trifluoroethyl]-2,4,6-trimethylbenzenesulfonamide]
CCOc1cccc(SCC(NS(=O)(=O)c2c(C)cc(C)cc2C)C(F)(F)F)c1 (stereo not drawn) [N-[1-(3-Ethoxyphenylsulfanylmethyl)-2,2,2-trifluoroethyl]-2,4,6-trimethylbenzenesulfonamide]
Cc1cc(C)c(S(=O)(=O)NC(CNc2cccc(C)c2C#N)C(F)(F)F)c(C)c1 (stereo not drawn) [N-{1-[(2-Cyano-3-methylphenylamino)methyl]-2,2,2-trifluoroethyl}-2,4,6-trimethylbenzenesulfonamide]
Cc1cc(C)c(S(=O)(=O)NC(COc2cc(F)c(F)cc2F)C(F)(F)F)c(C)c1 (stereo not drawn) [2,4,6-Trimethyl-N-[2,2,2-trifluoro-1-(2,4,5-trifluorophenoxymethyl)ethyl]benzenesulfonamide]
Cc1ccc(SCC(NS(=O)(=O)c2c(C)cc(C)cc2C)C(F)(F)F)c(C)c1 (stereo not drawn) [N-[1-(2,4-Dimethylphenylsulfanylmethyl)-2,2,2-trifluoroethyl]-2,4,6-trimethylbenzenesulfonamide]
CCN(CC(NS(=O)(=O)c1c(C)cc(C)cc1C)C(F)(F)F)c1ccccc1 (stereo not drawn) [N-{1-[(Ethylphenylamino)methyl]-2,2,2-trifluoroethyl}-2,4,6-trimethylbenzenesulfonamide]
Cc1cc(C)c(S(=O)(=O)NC(COc2cccc(F)c2)C(F)(F)F)c(C)c1 (stereo not drawn) [2,4,6-Trimethyl-N-[2,2,2-trifluoro-1-(3-fluorophenoxymethyl)ethyl]benzenesulfonamide]
Cc1cc(C)c(S(=O)(=O)NC(CNc2c(F)cccc2F)C(F)(F)F)c(C)c1 (stereo not drawn) [N-{1-[(2,6-Difluorophenylamino)methyl]-2,2,2-trifluoroethyl}-2,4,6-trimethylbenzenesulfonamide]
Cc1cc(C)c(S(=O)(=O)NC(CSc2cccc(C(F)(F)F)c2)C(F)(F)F)c(C)c1 (stereo not drawn) [2,4,6-Trimethyl-N-[2,2,2-trifluoro-1-(3-trifluoromethylphenylsulfanylmethyl)ethyl]benzenesulfonamide]
Cc1cc(C)c(S(=O)(=O)NC(COc2ccc(Cl)c(C(F)(F)F)c2)C(F)(F)F)c(C)c1 (stereo not drawn) [N-[1-(4-Chloro-3-trifluoromethylphenoxymethyl)-2,2,2-trifluoroethyl]-2,4,6-trimethylbenzenesulfonamide]
Cc1cc(C)c(S(=O)(=O)NC(CNc2cc(Cl)ccc2C)C(F)(F)F)c(C)c1 (stereo not drawn) [N-{1-[(5-Chloro-2-methylphenylamino)methyl]-2,2,2-trifluoroethyl}-2,4,6-trimethylbenzenesulfonamide]
Cc1cc(C)c(S(=O)(=O)NC(CNc2ccccc2OC(F)(F)F)C(F)(F)F)c(C)c1 (stereo not drawn) [2,4,6-Trimethyl-N-{2,2,2-trifluoro-1-[(2-trifluoromethoxyphenylamino)methyl]ethyl}benzenesulfonamide]
Cc1cc(C)c(S(=O)(=O)NC(CSc2cccc(OC(F)(F)F)c2)C(F)(F)F)c(C)c1 (stereo not drawn) [2,4,6-Trimethyl-N-[2,2,2-trifluoro-1-(3-trifluoromethoxyphenylsulfanylmethyl)ethyl]benzenesulfonamide]
Cc1cc(C)c(S(=O)(=O)NC(CSc2ccc(Cl)cc2Cl)C(F)(F)F)c(C)c1 (stereo not drawn) [N-[1-(2,4-Dichlorophenylsulfanylmethyl)-2,2,2-trifluoroethyl]-2,4,6-trimethylbenzenesulfonamide]
Cc1cc(C)c(S(=O)(=O)NC(COc2ccc(C)c(Cl)c2)C(F)(F)F)c(C)c1 (stereo not drawn) [N-[1-(3-Chloro-4-methylphenoxymethyl)-2,2,2-trifluoroethyl]-2,4,6-trimethylbenzenesulfonamide]
CCc1cccc(C)c1NCC(NS(=O)(=O)c1c(C)cc(C)cc1C)C(F)(F)F (stereo not drawn) [N-{1-[(2-Ethyl-6-methylphenylamino)methyl]-2,2,2-trifluoroethyl}-2,4,6-trimethylbenzenesulfonamide]
Cc1ccc(NCC(NS(=O)(=O)c2c(C)cc(C)cc2C)C(F)(F)F)c(C)c1 (stereo not drawn) [N-{1-[(2,4-Dimethylphenylamino)methyl]-2,2,2-trifluoroethyl}-2,4,6-trimethylbenzenesulfonamide]
Cc1cc(C)c(S(=O)(=O)NC(COc2ccc(Cl)cc2F)C(F)(F)F)c(C)c1 (stereo not drawn) [N-[1-(4-Chloro-2-fluorophenoxymethyl)-2,2,2-trifluoroethyl]-2,4,6-trimethylbenzenesulfonamide]
Cc1cc(C)c(S(=O)(=O)NC(COc2ccccc2C#N)C(F)(F)F)c(C)c1 (stereo not drawn) [N-[1-(2-Cyanophenoxymethyl)-2,2,2-trifluoroethyl]-2,4,6-trimethylbenzenesulfonamide]
